Reference: the supplement of paper PMC10307832

Assays:
Assay in all cases: relative viability (nuclei count vs DMSO), 5 days (fraction); higher = more cells survive
[1] = test system: NCI-H520
Summary of the method: (§1)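 Lung cancer cell lines in 1536-well plates got either a single drug or a fixed anchor-drug dose together with five library-drug doses (not always all listed) in √10 steps, by pin tool, on the day after seeding. Nuclei were counted after 5 days, and relative viability is the treated-to-vehicle ratio of nuclei counts. Values are medians of duplicate plates.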

[2] = test system: A-427
Summary of the method: as §1

[3] = test system: NCI-H1648
Summary of the method: as §1

[4] = test system: NCI-H2347
Summary of the method: as §1

[5] = test system: NCI-H1666
Summary of the method: as §1

[6] = test system: NCI-H1650
Summary of the method: as §1

[7] = test system: UMC-11
Summary of the method: as §1

[8] = test system: NCI-H1755
Summary of the method: as §1

[9] = test system: NCI-H2126
Summary of the method: as §1

[10] = test system: H3255
Summary of the method: as §1

[11] = test system: NCI-H3122
Summary of the method: as §1

[12] = test system: NCI-H23
Summary of the method: as §1

[13] = test system: NCI-H2405
Summary of the method: as §1

[14] = test system: BEN
Summary of the method: as §1

[15] = test system: NCI-H358
Summary of the method: as §1

[16] = test system: NCI-H727
Summary of the method: as §1

[17] = test system: NCI-H2087
Summary of the method: as §1

[18] = test system: ChaGo-K-1
Summary of the method: as §1

[19] = test system: NCI-H1437
Summary of the method: as §1

[20] = test system: NCI-H2009
Summary of the method: as §1

[21] = test system: NCI-H441
Summary of the method: as §1

[22] = test system: SK-LU-1
Summary of the method: as §1

[23] = test system: EKVX
Summary of the method: as §1

[24] = test system: NCI-H322M
Summary of the method: as §1

C=C1C(=O)O[C@@H](CCCCCCCC)[C@@H]1C(=O)O [C-75] + CC(=O)Nc1cccc(-n2c(=O)n(C3CC3)c(=O)c3c(Nc4ccc(I)cc4F)n(C)c(=O)c(C)c32)c1 [Trametinib] (partner 0.02 µM)
relative viability ([1]; first compound 0.08 µM): 0.689
relative viability ([1]; first compound 0.253 µM): 0.816
relative viability ([1]; first compound 0.8 µM): 0.593
relative viability ([1]; first compound 2.53 µM): 0.48
relative viability ([1]; first compound 8 µM): 0.533
relative viability ([2]; first compound 0.08 µM): 0.78
relative viability ([2]; first compound 0.253 µM): 0.84
relative viability ([2]; first compound 0.8 µM): 0.655
relative viability ([2]; first compound 2.53 µM): 0.665
relative viability ([2]; first compound 8 µM): 0.701
relative viability ([3]; first compound 0.08 µM): 0.435
relative viability ([3]; first compound 0.253 µM): 0.658
relative viability ([3]; first compound 0.8 µM): 0.447
relative viability ([3]; first compound 8 µM): 0.443
relative viability ([4]; first compound 0.08 µM): 0.296
relative viability ([4]; first compound 0.253 µM): 0.193
relative viability ([4]; first compound 0.8 µM): 0.317
relative viability ([4]; first compound 2.53 µM): 0.26
relative viability ([4]; first compound 8 µM): 0.365
relative viability ([5]; first compound 0.08 µM): 0.869
relative viability ([5]; first compound 0.253 µM): 1.01
relative viability ([5]; first compound 0.8 µM): 0.807
relative viability ([5]; first compound 8 µM): 0.728
relative viability ([6]; first compound 0.08 µM): 0.462
relative viability ([6]; first compound 0.253 µM): 0.553
relative viability ([6]; first compound 0.8 µM): 0.602
relative viability ([6]; first compound 8 µM): 0.555
relative viability ([7]; first compound 0.08 µM): 0.723
relative viability ([7]; first compound 0.253 µM): 0.841
relative viability ([7]; first compound 0.8 µM): 0.659
relative viability ([7]; first compound 2.53 µM): 0.581
relative viability ([7]; first compound 8 µM): 0.526
relative viability ([8]; first compound 0.08 µM): 0.763
relative viability ([8]; first compound 0.253 µM): 0.748
relative viability ([8]; first compound 0.8 µM): 0.76
relative viability ([8]; first compound 2.53 µM): 0.677
relative viability ([8]; first compound 8 µM): 0.702
relative viability ([9]; first compound 0.08 µM): 0.587
relative viability ([9]; first compound 0.253 µM): 0.587
relative viability ([9]; first compound 0.8 µM): 0.581
relative viability ([9]; first compound 2.53 µM): 0.553
relative viability ([9]; first compound 8 µM): 0.502
relative viability ([10]; first compound 0.08 µM): 0.66
relative viability ([10]; first compound 0.253 µM): 0.613
relative viability ([10]; first compound 0.8 µM): 0.647
relative viability ([10]; first compound 2.53 µM): 0.543
relative viability ([10]; first compound 8 µM): 0.666
relative viability ([11]; first compound 0.08 µM): 0.261
relative viability ([11]; first compound 0.253 µM): 0.243
relative viability ([11]; first compound 0.8 µM): 0.218
relative viability ([11]; first compound 2.53 µM): 0.143
relative viability ([11]; first compound 8 µM): 0.259
relative viability ([12]; first compound 0.08 µM): 0.361
relative viability ([12]; first compound 0.253 µM): 0.436
relative viability ([12]; first compound 0.8 µM): 0.343
relative viability ([12]; first compound 2.53 µM): 0.291
relative viability ([12]; first compound 8 µM): 0.321
relative viability ([13]; first compound 0.08 µM): 0.635
relative viability ([13]; first compound 0.253 µM): 0.47
relative viability ([13]; first compound 0.8 µM): 0.691
relative viability ([13]; first compound 2.53 µM): 0.575
relative viability ([13]; first compound 8 µM): 0.784
relative viability ([14]; first compound 0.08 µM): 0.993
relative viability ([14]; first compound 0.253 µM): 1.2
relative viability ([14]; first compound 0.8 µM): 0.995
relative viability ([14]; first compound 2.53 µM): 1.14
relative viability ([14]; first compound 8 µM): 0.989
relative viability ([15]; first compound 0.08 µM): 0.158
relative viability ([15]; first compound 0.253 µM): 0.13
relative viability ([15]; first compound 0.8 µM): 0.151
relative viability ([15]; first compound 8 µM): 0.121
relative viability ([16]; first compound 0.08 µM): 0.377
relative viability ([16]; first compound 0.253 µM): 0.378
relative viability ([16]; first compound 0.8 µM): 0.448
relative viability ([16]; first compound 2.53 µM): 0.393
relative viability ([16]; first compound 8 µM): 0.352
relative viability ([17]; first compound 0.08 µM): 0.247
relative viability ([17]; first compound 0.253 µM): 0.24
relative viability ([17]; first compound 0.8 µM): 0.179
relative viability ([17]; first compound 2.53 µM): 0.16
relative viability ([17]; first compound 8 µM): 0.212
relative viability ([18]; first compound 0.08 µM): 0.878
relative viability ([18]; first compound 0.253 µM): 0.875
relative viability ([18]; first compound 0.8 µM): 0.819
relative viability ([18]; first compound 2.53 µM): 0.538
relative viability ([18]; first compound 8 µM): 0.907
relative viability ([19]; first compound 0.08 µM): 0.514
relative viability ([19]; first compound 0.253 µM): 0.699
relative viability ([19]; first compound 0.8 µM): 0.454
relative viability ([19]; first compound 8 µM): 0.586
relative viability ([20]; first compound 0.08 µM): 0.277
relative viability ([20]; first compound 0.253 µM): 0.249
relative viability ([20]; first compound 0.8 µM): 0.282
relative viability ([20]; first compound 2.53 µM): 0.262
relative viability ([20]; first compound 8 µM): 0.332
relative viability ([21]; first compound 0.08 µM): 0.569
relative viability ([21]; first compound 0.253 µM): 0.533
relative viability ([21]; first compound 0.8 µM): 0.406
relative viability ([21]; first compound 8 µM): 0.548
relative viability ([22]; first compound 0.08 µM): 0.494
relative viability ([22]; first compound 0.253 µM): 0.598
relative viability ([22]; first compound 0.8 µM): 0.49
relative viability ([22]; first compound 2.53 µM): 0.458
relative viability ([22]; first compound 8 µM): 0.468
relative viability ([23]; first compound 0.08 µM): 0.344
relative viability ([23]; first compound 0.253 µM): 0.263
relative viability ([23]; first compound 0.8 µM): 0.31
relative viability ([23]; first compound 8 µM): 0.355
relative viability ([24]; first compound 0.08 µM): 0.513
relative viability ([24]; first compound 0.253 µM): 0.673
relative viability ([24]; first compound 0.8 µM): 0.547
relative viability ([24]; first compound 8 µM): 0.508
